Results from patent US12186306B2, “Methods of treatment for cystic fibrosis” (Vertex Pharmaceuticals Incorporated, priority 2020, dated 2025).
Where a name gives a salt, the structure may show the parent alone. Blank lines part the entries; values can stand above or below the compound they belong to.

Experiments:
[1] = system: subjects with gating mutations; experiment: Clinical trial: absolute change in SwCl at 12 weeks in subjects with gating mutations on stable ivacaftor treatment; safety and tolerability; assay type: in vivo, human; conditions: for Absolute change in SwCl at Week 12: LS mean (SE): subjects with gating mutations
Protocol: In a clinical trial, a comparative study was conducted on absolute changes in SwCl at 12 weeks in subjects with gating mutations where were on stable treatment with ivacaftor.

[2] = Relative stability of solid (polymorphic) forms of Compound II; assay type: physicochemical
[3] = Comparison of calcium salt hydrate forms: dissolution, solubility, exposure; assay type: physicochemical; conditions: than the other calcium salt hydrate forms

Polymorphic form stability ([2]; in IPA/water at water activity 0.1-0.95 from ambient temperature to 60° C.): most stable polymorphic form | Stability among calcium salt hydrate forms ([2]; under certain conditions, such as in mixtures of ethanol and water): most stable form of calcium salt hydrate
SMILES: CC1(C)C[C@@H]2CCCNc3cccc(n3)S(=O)(=O)NC(=O)c3ccc(-n4ccc(OCCC5C6(CC6)C56CC6)n4)nc3N1C2 [Compound II calcium salt hydrate Form D, (14S)-8-[3-(2-{Dispiro[2.0.2.1]heptan-7-yl}ethoxy)-1H-pyrazol-1-yl]-12,12-dimethyl-2λ6-thia-3,9,11,18,23-pentaazatetracyclo[17.3.1.111,14.05,10]tetracosa-1(22),5,7,9,19(23),20-hexaene-2,2,4-trione]

Polymorphic form stability ([2]; water activity ≤0.95 at ambient temperature): most stable polymorphic form
SMILES: CC1(C)C[C@@H]2CCCNc3cccc(n3)S(=O)(=O)NC(=O)c3ccc(-n4ccc(OCCC5C6(CC6)C56CC6)n4)nc3N1C2 [Compound II free Form A, (14S)-8-[3-(2-{Dispiro[2.0.2.1]heptan-7-yl}ethoxy)-1H-pyrazol-1-yl]-12,12-dimethyl-2λ6-thia-3,9,11,18,23-pentaazatetracyclo[17.3.1.111,14.05,10]tetracosa-1(22),5,7,9,19(23),20-hexaene-2,2,4-trione]

The next lines start with the compound.

SMILES: [2H]C([2H])([2H])C(c1cc(C(C)(C)C)c(NC(=O)c2c[nH]c3ccccc3c2=O)cc1O)(C([2H])([2H])[2H])C([2H])([2H])[2H] [Compound I, N-(2-(tert-butyl)-5-hydroxy-4-(2-(methyl-d3)propan-2-yl-1,1,1,3,3,3-d6)phenyl)-4-oxo-1,4-dihydroquinoline-3-carboxamide]
Safety and tolerability ([1]; 150 mg and 250 mg for 12 weeks): generally safe and well tolerated | SwCl compared to ivacaftor baseline ([1]; 150 mg dose, week 12): decrease in SwCl | Absolute change in SwCl at Week 12: LS mean difference vs Ivacaftor ([1]; 150 mg qd vs ivacaftor 150 mg q12h, week 12): 2.4 | Absolute change in SwCl at Week 12: LS mean (SE) ([1]; 150 mg qd, N = 23, week 12): 3.3 | SwCl at week 12 compared to the ivacaftor baseline ([1]; 250 mg dose): improvement in SwCl | Absolute change in SwCl at Week 12: LS mean difference vs Ivacaftor ([1]; 250 mg qd vs ivacaftor 150 mg q12h, week 12): −7.3 | Absolute change in SwCl at Week 12: LS mean (SE) ([1]; 250 mg qd, N = 24, week 12): −6.5

SMILES: CC1(C)C[C@@H]2CCCNc3cccc(n3)S(=O)(=O)NC(=O)c3ccc(-n4ccc(OCCC5C6(CC6)C56CC6)n4)nc3N1C2 [Compound II calcium salt hydrate Form A, (14S)-8-[3-(2-{Dispiro[2.0.2.1]heptan-7-yl}ethoxy)-1H-pyrazol-1-yl]-12,12-dimethyl-2λ6-thia-3,9,11,18,23-pentaazatetracyclo[17.3.1.111,14.05,10]tetracosa-1(22),5,7,9,19(23),20-hexaene-2,2,4-trione]
Kinetic preference among calcium salt hydrate forms [2]: most kinetically favored calcium salt hydrate form | Dissolution [3]: higher | Exposure [3]: higher | Solubility [3]: higher

SMILES: CC(C)(C)c1cc(C(C)(C)C)c(NC(=O)c2c[nH]c3ccccc3c2=O)cc1O [Ivacaftor, reference compound]
Absolute change in SwCl at Week 12: LS mean (SE) ([1]; 150 mg q12h, N = 11, week 12): 0.9
